Earlier results as cited in patent US20180355410A1, “DIAGNOSIS AND TREATMENT OF INFECTIOUS DISEASE” (Cambridge Enterprise Limited, priority 2015, published 2018).

Tested on: Neisseria gonorrhoeae
Conditions: EUCAST clinical breakpoint valid from 1st January 2015

MIC R-breakpoint (resistant): > 0.5 µg/mL | MIC S-breakpoint (susceptible): ≤ 0.25 µg/mL
SMILES: CC[C@H]1OC(=O)[C@H](C)[C@@H](O[C@H]2C[C@@](C)(OC)[C@@H](O)[C@H](C)O2)[C@H](C)[C@@H](O[C@@H]2O[C@H](C)C[C@H](N(C)C)[C@H]2O)[C@](C)(O)C[C@@H](C)CN(C)[C@H](C)[C@@H](O)[C@]1(C)O [Azithromycin]
